What all share (assay type): functional
Conditions in all cases: 336 h

For test [1], the system named is Mycobacterium tuberculosis. Nature of the test: Antitubercular activity against multi-drug resistant Mycobacterium tuberculosis K29b00MR after 14 days in presence of middlebrook 7H9/BSA medium by eleven fold serial dilution method.
The subject of test [2] is Mycobacterium tuberculosis. The test is described as follows: Antitubercular activity against multi-drug resistant Mycobacterium tuberculosis K22b00MR after 14 days in presence of middlebrook 7H9/BSA medium by eleven fold serial dilution method.
The subject of test [3] is Mycobacterium tuberculosis. Nature of the test: Antitubercular activity against multi-drug resistant Mycobacterium tuberculosis K25b00MR after 14 days in presence of middlebrook 7H9/BSA medium by eleven fold serial dilution method.
Test [4] has as its system Mycobacterium tuberculosis. The test is described as follows: Antitubercular activity against multi-drug resistant Mycobacterium tuberculosis K26b00MR after 14 days in presence of middlebrook 7H9/BSA medium by eleven fold serial dilution method.

The MIC is the lowest concentration that inhibits growth of the organism. For `C[C@@H](NC(=O)N1C(=O)C[C@@H]1Sc1ccc(F)cc1F)c1ccccc1`, the MIC in test [1] worked out at 12.5 µg/mL; in test [2], 12.5 µg/mL; in test [3], 12.5 µg/mL; in test [4] it was 25 µg/mL.
As for `C[C@H](NC(=O)N1C(=O)C[C@H]1Sc1ccc(F)cc1F)c1ccccc1`, the MIC was 25 µg/mL in test [1], 25 µg/mL in test [2], 12.5 to 25 µg/mL in test [3] and 25 to 50 µg/mL in test [4].
For the compound `C[C@H](NC(=O)N1C(=O)C[C@@H]1Sc1ccc(C(F)(F)F)cc1)c1ccccc1`, the MIC in test [1] was 12.5 µg/mL; in test [2], 12.5 µg/mL; in test [3] it was 12.5 to 25 µg/mL; in test [4], 12.5 µg/mL.
Take `C[C@@H](NC(=O)N1C(=O)C[C@H]1Sc1ccc(F)cc1F)c1ccccc1`: the MIC in test [1] is 12.5 µg/mL; in test [2], 12.5 µg/mL; in test [3], 12.5 µg/mL; in test [4] it was 12.5 to 25 µg/mL.
With `O=C1CC(Sc2ccc(C(F)(F)F)cc2)N1C(=O)NCc1ccccc1` (racemic), the minimum inhibitory concentration (MIC) in test [1] amounted to 25 µg/mL; in test [2], 12.5 µg/mL; in test [3] it was 25 µg/mL; in test [4], 12.5 µg/mL.
Turning to `NNC(=O)c1ccncc1` [ISONIAZID], the minimal inhibitory concentration (MIC) was at least 1 µg/mL in test [1], 0.6 µg/mL in test [2], 1.3 µg/mL in test [3] and over 1 µg/mL in test [4].

The values above are taken from ChEMBL document CHEMBL4304800, “C4-Phenylthio β-lactams: Effect of the chirality of the β-lactam ring on antimicrobial activity” (2019).
